# In article PMC4974614, “Human native kappa opioid receptor functions not predicted by recombinant receptors: Implications for drug design” (Scientific Reports, 2016):
# “And” between values parts separate entries of the source, which are not always exact repeats. Equal entries are not always repeated. Structures can show the parent of a compound that is named as a salt. Where two headings read alike, the source gives them in different places.
# Tests used:
# [1] = target: T1, human κ receptor (Homo sapiens, UniProt P41145); assay: cell-based; conditions: for Emax: HEK293, read-out: BRET Emax (%)
# T1 sequence (P41145 whole entry): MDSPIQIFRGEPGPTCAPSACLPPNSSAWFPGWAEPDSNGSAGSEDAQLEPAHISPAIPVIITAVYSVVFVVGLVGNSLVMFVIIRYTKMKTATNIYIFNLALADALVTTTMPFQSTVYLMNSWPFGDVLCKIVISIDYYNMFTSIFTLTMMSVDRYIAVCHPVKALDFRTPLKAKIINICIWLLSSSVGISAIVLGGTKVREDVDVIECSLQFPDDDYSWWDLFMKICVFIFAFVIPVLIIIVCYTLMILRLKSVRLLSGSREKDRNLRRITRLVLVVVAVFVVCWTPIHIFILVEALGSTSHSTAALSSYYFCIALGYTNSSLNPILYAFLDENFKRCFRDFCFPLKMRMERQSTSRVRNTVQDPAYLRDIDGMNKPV
# [2] = target: T2, mouse κ receptor (Mus musculus, UniProt P33534); assay: cell-based; conditions: HEK293, read-out: BRET Emax (%)
# T2 sequence (P33534 whole entry): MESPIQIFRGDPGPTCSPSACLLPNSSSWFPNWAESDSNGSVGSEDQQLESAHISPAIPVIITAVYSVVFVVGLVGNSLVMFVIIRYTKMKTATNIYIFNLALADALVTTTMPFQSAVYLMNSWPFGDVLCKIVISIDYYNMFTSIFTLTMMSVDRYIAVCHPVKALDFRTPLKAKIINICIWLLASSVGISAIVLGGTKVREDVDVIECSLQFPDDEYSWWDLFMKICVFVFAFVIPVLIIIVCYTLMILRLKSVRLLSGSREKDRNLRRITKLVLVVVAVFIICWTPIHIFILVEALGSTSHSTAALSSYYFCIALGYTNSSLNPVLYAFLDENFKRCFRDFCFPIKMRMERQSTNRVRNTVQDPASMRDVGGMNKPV
# [3] = target: T1, human κ receptor; assay: cell-based; conditions: for Emax: HEK293, read-out: TR-FRET Emax (%)
# [4] = target: T2, mouse κ receptor; assay: cell-based; conditions: HEK293, read-out: TR-FRET Emax (%)
# [5] = target: T1, human κ receptor; format: cell-based
# [6] = target: T2, mouse κ receptor; format: cell-based
# [7] = tested on: mouse isolated colon; assay: EFS-evoked cholinergically-mediated contractions of mouse isolated colon; format: cell-based; conditions: for Emax / EC50: Mus musculus; for Emax: read-out: Emax (%), inhibition of EFS-evoked after-contractions; for EC50: read-out: pEC50, inhibition of EFS-evoked after-contractions (converted)
# [8] = tested on: mouse proximal colon; assay: Carbachol-induced contractions of mouse proximal colon; format: cell-based
# Description: Changes in muscle tension were recorded using isometric force transducers (AD Instruments, Chalgrove, UK) on a data acquisition system (Biopac Systems Inc., Goleta, CA, USA). The strips were given 1 g tension and allowed to recover for 30 min during which time the bath solutions were changed every 15 min; this initial tension was previously determined as the optimum required to maximally detect EFS-evoked responses in both regions (data not shown). Electrical Field Stimulation (EFS) was applied at 5 Hz using a maximally-effective voltage (80 V) and 0.5 ms bipolar pulse duration […], given for 30 s every 120 s, for at least 1 hour before drug addition. These parameters of EFS consistently evoked nerve-mediated responses with a good signal-to-noise ratio over spontaneous muscle activity. After obtaining consistent responses, drugs were applied non-cumulatively to separate tissues (20 min contact); changes in resting muscle tension and responses to EFS were measured. Finally, any effects of the drugs on carbachol-induced contractions were examined by first obtaining consistent responses to a submaximally-effective concentration of carbachol (1 μM; 27 ± 9% max, 5 min contact; n = 4). The compounds were then added 5 min before application of carbachol (1 μM, 5 min contact), followed by washing, and this process was repeated at least once more.
# [9] = tested on: human isolated colon; assay: EFS-evoked cholinergically-mediated contractions of human isolated colon; format: cell-based; conditions: for inhibition at 1 µM: read-out: % inhibition of contractions evoked during EFS; for effect alone on responses to EFS: phentolamine 1 μM and propranolol 1 μM together, descending colon
# [10] = tested on: human descending colon; assay: cells; format: cell-based
# [11] = tested on: tetrodotoxin-sensitive Na+ channels; conditions: read-out: EC50, block of tetrodotoxin-sensitive Na+ channels; cited from earlier work
# [12] = tested on: μ-opioid receptors; conditions: cited from earlier work
# [13] = tested on: K+ channels in mouse epithelia; conditions: read-out: IC50, block of K+ channels; cited from earlier work
# [14] = human, in vivo; cited from earlier work
# [15] = in vivo; cited from earlier work
# [16] = tested on: human descending colon; assay: Carbachol-evoked contractions of human descending colon
# [17] = tested on: mouse κ receptors in COS-1 cells; conditions: read-out: IC50, radioligand binding; cited from earlier work
# [18] = target: Recombinant human receptor; conditions: cited from earlier work
# [19] = target: Recombinant human receptor; conditions: cited from earlier work; remark: listed apart in the source
# [20] = tested on: human isolated colon; conditions: cited from earlier work
# [21] = tested on: κ receptor; conditions: cited from earlier work
molecule,measurement,setting,value
CN(C(=O)C(c1ccccc1)c1ccccc1)[C@H](CN1CC[C@H](O)C1)c1ccccc1 [Asimadoline],EC50,[1]; BRET pEC50,0.631 nM
same,Emax,[1],98 ± 5%
same,Emax,[2],99 ± 4%
same,EC50,[3],39.8 nM
same,Emax,[3],97 ± 2%
same,Emax,[4],96 ± 3%
same,BIAS,[5],0.60
same,BIAS,[6],0.65
same,reduction of contractions of the distal colon,[7],59 ± 13%
same,time taken to achieve maximum activity,[7],17 ± 3 min
same,Emax,[7],52 ± 7%
same,EC50,[7],7.94 nM
same,effect on contractions induced by carbachol 1 μM,[8],5 ± 7
same,Time to max effect,[9],40 ± 4 min
same,effect on baseline muscle tension,[9],Neither asimadoline nor ICI204448 changed baseline muscle tension
same,time to maximum inhibition,[9],30 ± 5 min
same,inhibition at 1 µM,[9]; Homo sapiens,-29 ± 4%
same,maximum inhibition of the response to ICI204448 60 nM,[10],19 ± 7%
same,IC50,"[10]; Homo sapiens, read-out: pIC50, reduction of the response to ICI204448 60 nM (converted)",1.58 nM
same,EC50,[11],8400 nM
same,concentration activating μ-opioid receptors,[12],3 µM
same,IC50,[13],23700 nM
same,effect on colonic transit or postprandial motility,[14],not to affect colonic transit or postprandial motility
same,effect on sensation or pain caused by colonic distension,[15],reduced the sensation or pain caused by colonic distension
same,effect on contractions evoked by carbachol 1 μM,[16],−10 ± 9%
CN(C(=O)Cc1ccc(Cl)c(Cl)c1)C(CN1CCCC1)c1cccc(OCC(=O)O)c1 (stereo not drawn) [ICI204448],Emax,[1],100 ± 3%
same,Emax,[2],90 ± 4%
same,Emax,[3],98 ± 2%
same,Emax,[4],92 ± 4%
same,"Emax (%), inhibition of EFS-evoked after-contractions",[7],57 ± 7%
same,reduction of contractions of the distal colon,[7],70 ± 5%
same,time taken to achieve maximum activity,[7],7 ± 2 min
same,Emax,[7],49 ± 8%
same,EC50,[7],3.16 nM
same,effect on contractions induced by carbachol 1 μM,"[8]; 1 μM, proximal colon",0 ± 5 % initial carbachol response
same,Time to max effect,[9],13 ± 3 min
same,effect on baseline muscle tension,[9],Neither asimadoline nor ICI204448 changed baseline muscle tension
same,effect on relaxations evoked by EFS,[9],1 ± 7 % change from baseline EFS
same,"pEC50, inhibition of contractions during EFS",[9],8.0 ± 0.4
same,time to maximum inhibition,[9],7 ± 1 min
same,inhibition at 1 µM,[9]; Homo sapiens,-57 ± 10%
same,inhibition at 0.1 µM,"[9]; Homo sapiens, read-out: inhibition of EFS-evoked contractions",130 ± 29%
same,IC50,[17],6.6 nM
same,G protein pEC50,[18],8.38 ± 0.09
same,Arrestin pEC50,[19],8.48 ± 0.06
same,biased activity towards the human κ receptor arrestin pathway,[19],only weak propensity for biased activity
same,effect on contractions evoked by carbachol 1 μM,"[16]; 100 nM, descending colon, no EFS",−9 ± 2%
"COC(=O)[C@@H](N)CCCNC(N)=N[N+](=O)[O-] [L-NAME, Nω-nitro-L-arginine methyl ester hydrochloride]",effect on EFS-evoked relaxations,"[7]; 300 μM, proximal and distal colon",abolished
same,effect on relaxations during EFS,"[9]; 300 μM, ascending and descending colon",prevented
CN1[C@@H]2CC[C@H]1C[C@@H](OC(=O)C(CO)c1ccccc1)C2 (stereo partly drawn) [atropine],increase of EFS-evoked relaxations,[7],61 ± 13%
same,reduction of after-contractions,[7],81 ± 5%
same,effect on contractions during EFS,[9],prevented
same,attenuation of after-contractions,[20],56 ± 12%
C[N+](C)(C)CCOC(N)=O [carbachol],contraction as % max,"[8]; 1 μM, 5 min contact",27 ± 9 % max
same,contraction as % of maximum contraction to carbachol,"[16]; 1 μM, 5 min contact",~ 50%
CC[C@](COCc1cc(OC)c(OC)c(OC)c1)(c1ccccc1)N(C)C [fedotozine],selectivity for the κ receptor over other opioid receptors,[21],~2 fold
Oc1ccc2c3c1O[C@H]1c4[nH]c5c(c4C[C@@]4(O)[C@@H](C2)N(CC2CC2)CC[C@]314)C[C@@]1(O)[C@H]2Cc3ccc(O)c4c3[C@@]1(CCN2CC1CC1)[C@H]5O4 [nor-binaltorphamine],effect by itself on the response to EFS,[7],did not by itself change the response to EFS
same,effect on inhibition by ICI204448 and asimadoline,[7],antagonised
same,effect by itself on contractions to EFS,[9],by itself did not affect contractions to EFS
same,intercept of Schild analysis,[9],−9.7
same,slope of Schild analysis,[9],0.53 ± 0.11
Cc1ccc(N(CC2=NCCN2)c2cccc(O)c2)cc1 [phentolamine],effect alone on responses to EFS,[9],2 ± 3 % change from baseline EFS
CC(C)NCC(O)COc1cccc2ccccc12 (stereo not drawn) [propranolol],effect alone on responses to EFS,[9],2 ± 3 % change from baseline EFS
NC1=N[C@H](O)[C@H]2[C@H]3O[C@]4(O)O[C@@H]([C@@H](O)[C@@]2(N1)[C@@H]4O)[C@]3(O)CO [tetrodotoxin],"effect on EFS-evoked responses (relaxation, after-contraction)",[7],prevented
same,effect on responses evoked by EFS,[9],prevented
Dynorphin 1-13,% inhibition of contractions evoked during EFS,[9],-30% and -35%
same,Time to max effect,[9],17 min and 11 min
same,G protein pEC50,[18],8.68 ± 0.07
same,Arrestin pEC50,[19],7.01 ± 0.07
